# Reference: US20150065416A1, “NOVEL DRUG COMBINATION” (FAB PHARMA SAS, priority 2013, published 2015)
# Where two headings read alike, the source gives them in different places.
# Tests used:
# [1] = tested on: A. baumannii isolates; test: Time kill study (Example 4); assay type: cell-based, Acinetobacter baumannii; settings: for MIC: Acinetobacter baumannii, read-out: MIC; for Time to kill 99.9%: alone; for effect in time-kill studies when tested alone: alone at 1× or 4×MIC
# Protocol: A total of 12 isolates were tested (three per sub-group either susceptible, meropenem-resistant, amikacin-resistant or colistin-resistant). Two combinations were tested per isolate. Time-kill kinetics were performed by testing compound (I) and an additional antibacterial agent (amikacin, colistin and meropenem) individually at 1× and 4× the corresponding MIC of each antibacterial agent. […] Samples were taken at 0, 2, 4, 8 and 24 hours in order to determine colony forming units (CFU/mL).
# Time-kill studies were carried out as described in General Procedures using combinations of compound (I) with amikacin, meropenem and colistin, respectively.
# [2] = tested on: A. baumannii SAN strain; test: Bactericidal activity (time kill kinetics, Example 5); assay type: cell-based, Acinetobacter baumannii; settings: alone at 2×MIC
# Protocol: In addition, a second set of experiments involved the testing of compound(I)/additional antibacterial agent combinations of 2×/2×MIC. Samples were taken at 0, 3, 6 and 24 hours in order to determine colony forming units (CFU/mL).
# [3] = tested on: A. baumannii SAN-94040; test: Mouse model of A. baumannii pneumonia, Study 1: survival; assay type: in vivo, Acinetobacter baumannii
# Protocol: (§1) The bacterial inoculum was prepared in order to obtain a suspension containing 10^8 CFU/mL of Acinetobacter baumannii in saline.
# (§2) Experimentations were performed with six-week old female C3H/HeN mice (18-20 g, Breeding Centre JANVIER (Ile saint Genest Mayenne 53)) because of their particular susceptibility to Acinetobacter baumannii and the reproducibility of the results (inbreeding in the breed). Each mouse was individually marked and housed in cages containing five animals/cage under ventilated and controlled (temperature and humidity) atmosphere.
# (§3) The mice were rendered transiently neutropenic by 2 intra-peritoneal (IP) injections of 150 μL of cyclophosphamide (Endoxan® 150 mg/kg) 4 (D-4) and 3 (D-3) days before the Acinetobacter baumannii inoculation (Day 0). This transient immunosuppression was sufficient to facilitate the development of the A. baumannii pneumonia while allowing the recovery of the neutrophil influx 2 (Day 2) days after inoculation in order to avoid or limit a systemic bacterial dissemination.
# (§4) Mice were anesthetized by a mixture of oxygen and isoflurane. The bacterial inoculation was performed on Day 0 by intra-tracheal installation using an endotracheal catheter (50 μl of the suspension, thus 5.106 CFU). The positioning of the catheter in the trachea (instead of in the oesophagus) was checked by a “ring test”. The bacterial count in lungs was checked for all study groups by sacrificing one mouse immediately after inoculation.
# Survival observations were assessed twice daily, up to 4 days post infection. The survival rates were compared with the Chi-square test or the Fisher exact test as appropriate. The survival curves were compared by the Kaplan-Meier method.
# The aim of this experiment was to assess the […], with compound (I) via intra-peritoneal route at 200 mg/kg 3 times daily (every 8 hours) for 1 day alone and in combination with meropenem at 50 mg/kg 3 times daily (every 8 hours) for 1 day or with amikacin at 18 mg/kg 3 times daily (every 8 hours) for 1 day.
# [4] = tested on: A. baumannii SAN-94040; test: Mouse model of A. baumannii pneumonia, Study 2: bacterial counts in blood and tissues; assay type: in vivo, Acinetobacter baumannii
# Protocol: as §1, §2, §3, §4
# Sample time points: T0 (pre-inoculation), T24h (post inoculation), T48h and T72h.
# Blood samples preparation: At each time point, three mice were sacrificed per group by cervical dislocation.
# Tissue samples preparation: At each time point, three mice were sacrificed per group. Lungs, kidneys, liver and spleen were collected after the blood sampling and cervical dislocation. Tissues were wiped with a sterile gauze to remove blood contaminant outside. Tissues were then be weighed, finely ground and plated on agar for quantitative culture. Cultures were incubated at 37° C. for 18 to 24 hours.
# The aim of this experiment was to assess the bacterial counts in blood, lungs, spleen, liver and kidneys of transiently neutropenic female C3H/HeN mice administered, 3 hours post-inoculation of A. baumannii SAN-94040 via intra-tracheal route, with compound (I) via intra-peritoneal route at 200 mg/kg 3 times daily (every 8 hours) for 1 day alone and in combination with meropenem at 50 mg/kg 3 times daily (every 8 hours) for 1 day or with amikacin at 18 mg/kg 3 times daily (every 8 hours) for 1 day.
# All results concerning bacterial counts were expressed from Day 0 (inoculation) to 72 hours post-inoculation (Day 3). Bacterial counts on Day 3 were carried out only on surviving mice and results were more objectionable for interpretation. On Day 0, only bacterial count in lung of control mice was performed. Bacterial cell counts were determined as set out in the General Procedures.
# [5] = Study 1, 0 h after infection, doses as E210
# [6] = Study 1, 24 h after infection, doses as E210
# [7] = Study 1, 48 h after infection, doses as E210
# [8] = Study 1, 72 h after infection, doses as E210
# [9] = Study 1, 96 h after infection, doses as E210
# [10] = Study 1, C3H/HeN mice, 0 h after SAN-94040 infection, compound (I) 200 mg/kg, amikacin 18 mg/kg, meropenem 50 mg/kg q 8 h I.P.
# [11] = Study 2, 24 h, compound (I) 200 mg/kg Q8h, amikacin 18 mg/kg, meropenem 50 mg/kg Q8h I.P. for 1 day
structure (smiles),measurement,setting,value
NCC[C@H](O)C(=O)N[C@@H]1C[C@H](N)[C@@H](O[C@H]2O[C@H](CN)[C@@H](O)[C@H](O)[C@H]2O)[C@H](O)[C@H]1O[C@H]1O[C@H](CO)[C@@H](O)[C@H](N)[C@H]1O [amikacin],MIC,[1]; isolate MPM-R-1,4 µg/mL
same,MIC,[1]; isolate MPM-R-2,8 µg/mL
same,MIC,[1]; isolate MPM-R-3,4 µg/mL
same,MIC,[1]; isolate Sus-1,2 µg/mL
same,MIC,[1]; isolate Sus-2,4 µg/mL
same,MIC,[1]; isolate Sus-3,4 µg/mL
same,Time to kill 99.9%,"[1]; MPM-R-1, 1xMIC",1.4 h
same,Time to kill 99.9%,"[1]; MPM-R-1, 4xMIC",1.2 h
same,Time to kill 99.9%,"[1]; MPM-R-2, 1xMIC",1.3 h
same,Time to kill 99.9%,"[1]; MPM-R-2, 4xMIC",1.2 h
same,Time to kill 99.9%,"[1]; MPM-R-3, 1xMIC",1.4 h
same,Time to kill 99.9%,"[1]; MPM-R-3, 4xMIC",1.2 h
same,Time to kill 99.9%,"[1]; Sus-1, 1xMIC",1.7 h
same,Time to kill 99.9%,"[1]; Sus-1, 4xMIC",1.2 h
same,Time to kill 99.9%,"[1]; Sus-2, 4xMIC",1.2 h
same,Time to kill 99.9%,"[1]; Sus-3, 1xMIC",1.3 h
same,Time to kill 99.9%,"[1]; Sus-3, 4xMIC",1.3 h
same,effect in time-kill studies when tested alone,[1],generally bactericidal
same,effect in time-kill study when tested alone,[2],bactericidal
same,survivors (%),[3]; [5],100%
same,No. of survivors,[3]; [6],12
same,survivors (%),[3]; [6],86%
same,No. of survivors,[3]; [7],1
same,survivors (%),[3]; [7],17%
same,No. of survivors,[3]; [8],0
same,No. of survivors,[3]; [9],0
same,No. of survivors,[3]; [10],14
same,lung bacterial counts,[4]; [11],1.33E+09 CFU/g Lung
same,lung bacterial counts,"[4]; Study 2, 48 h",4.41E+08 CFU/g Lung
"CCc1cc(O)c(Oc2ccc(C(N)=O)cc2F)cc1F [compound (I), 4-(4-ethyl-5-fluoro-2-hydroxyphenoxy)-3-fluorobenzamide]",Time to kill 99.9%,"[1]; AMK-R-1, 1xMIC",>24 h
same,Time to kill 99.9%,"[1]; AMK-R-1, 4xMIC",>24 h
same,Time to kill 99.9%,"[1]; AMK-R-2, 1xMIC",>24 h
same,Time to kill 99.9%,"[1]; AMK-R-2, 4xMIC",>24 h
same,Time to kill 99.9%,"[1]; AMK-R-3, 1xMIC",>24 h
same,Time to kill 99.9%,"[1]; AMK-R-3, 4xMIC",>24 h
same,MIC,[1]; isolate AMK-R-1,4 µg/mL
same,MIC,[1]; isolate AMK-R-2,4 µg/mL
same,MIC,[1]; isolate AMK-R-3,2 µg/mL
same,MIC,[1]; isolate COL-R-1,8 µg/mL
same,MIC,[1]; isolate COL-R-2,4 µg/mL
same,MIC,[1]; isolate COL-R-3,16 µg/mL
same,MIC,[1]; isolate MPM-R-1,8 µg/mL
same,MIC,[1]; isolate MPM-R-2,4 µg/mL
same,MIC,[1]; isolate MPM-R-3,4 µg/mL
same,MIC,[1]; isolate Sus-1,1 µg/mL
same,MIC,[1]; isolate Sus-2,2 µg/mL
same,MIC,[1]; isolate Sus-3,8 µg/mL
same,MIC,"[1]; isolate printed MPM-R-1 (second such line of Table 8, r14)",4 µg/mL
same,Time to kill 99.9%,"[1]; COL-R-1, 1xMIC",>24 h
same,Time to kill 99.9%,"[1]; COL-R-1, 4xMIC",>24 h
same,Time to kill 99.9%,"[1]; COL-R-2, 1xMIC",>24 h
same,Time to kill 99.9%,"[1]; COL-R-2, 4xMIC",>24 h
same,Time to kill 99.9%,"[1]; COL-R-3, 1xMIC",>24 h
same,Time to kill 99.9%,"[1]; COL-R-3, 4xMIC",>24 h
same,Time to kill 99.9%,"[1]; MPM-R-1 (second line, Table 8 r14), 1xMIC",>24 h
same,Time to kill 99.9%,"[1]; MPM-R-1 (second line, Table 8 r14), 4xMIC",>24 h
same,Time to kill 99.9%,"[1]; MPM-R-1, 1xMIC",>24 h
same,Time to kill 99.9%,"[1]; MPM-R-1, 4xMIC",>24 h
same,Time to kill 99.9%,"[1]; MPM-R-2, 1xMIC",>24 h
same,Time to kill 99.9%,"[1]; MPM-R-2, 4xMIC",>24 h
same,Time to kill 99.9%,"[1]; MPM-R-3, 1xMIC",>24 h
same,Time to kill 99.9%,"[1]; MPM-R-3, 4xMIC",>24 h
same,Time to kill 99.9%,"[1]; Sus-1, 1xMIC",>24 h
same,Time to kill 99.9%,"[1]; Sus-1, 4xMIC",>24 h
same,Time to kill 99.9%,"[1]; Sus-2, 1xMIC",>24 h
same,Time to kill 99.9%,"[1]; Sus-2, 4xMIC",>24 h
same,Time to kill 99.9%,"[1]; Sus-3, 1xMIC",>24 h
same,Time to kill 99.9%,"[1]; Sus-3, 4xMIC",>24 h
same,effect in time-kill studies when tested alone,[1],bacteriostatic
same,effect in time-kill study when tested alone,[2],bacteriostatic
same,survivors (%),[3]; [5],100%
same,No. of survivors,[3]; [6],10
same,survivors (%),[3]; [6],71%
same,No. of survivors,[3]; [7],0
same,No. of survivors,[3]; [8],0
same,survivors (%),[3]; [8],0%
same,No. of survivors,[3]; [9],0
same,No. of survivors,[3]; [10],14
same,time post-infection within which all animals died,"[3]; Study 1, SAN-94040",≤ 48 h
same,lung bacterial counts,[4]; [11],4.72E+09 CFU/g Lung
same,lung bacterial counts,"[4]; Study 2, 48 h",3.75E+05 CFU/g Lung
C[C@@H](O)[C@H]1C(=O)N2C(C(=O)O)=C(S[C@@H]3CN[C@H](C(=O)N(C)C)C3)[C@H](C)[C@H]12 [meropenem],Time to kill 99.9%,"[1]; AMK-R-1, 1xMIC",5.2 h
same,Time to kill 99.9%,"[1]; AMK-R-1, 4xMIC",3.2 h
same,Time to kill 99.9%,"[1]; AMK-R-2, 1xMIC",>24 h
same,Time to kill 99.9%,"[1]; AMK-R-2, 4xMIC",6.1 h
same,Time to kill 99.9%,"[1]; AMK-R-3, 1xMIC",3.6 h
same,Time to kill 99.9%,"[1]; AMK-R-3, 4xMIC",1.8 h
same,MIC,[1]; isolate AMK-R-1,4 µg/mL
same,MIC,[1]; isolate AMK-R-2,16 µg/mL
same,MIC,[1]; isolate AMK-R-3,16 µg/mL
same,MIC,[1]; isolate COL-R-1,64 µg/mL
same,MIC,[1]; isolate COL-R-2,0.25 µg/mL
same,MIC,[1]; isolate COL-R-3,16 µg/mL
same,Time to kill 99.9%,"[1]; COL-R-1, 1xMIC",3.6 h
same,Time to kill 99.9%,"[1]; COL-R-1, 4xMIC",3.6 h
same,Time to kill 99.9%,"[1]; COL-R-2, 1xMIC",>24 h
same,Time to kill 99.9%,"[1]; COL-R-2, 4xMIC",5.8 h
same,Time to kill 99.9%,"[1]; COL-R-3, 1xMIC",>24 h
same,Time to kill 99.9%,"[1]; COL-R-3, 4xMIC",3.2 h
same,effect in time-kill studies when tested alone,[1],generally bactericidal
same,effect in time-kill study when tested alone,[2],bactericidal
same,survivors (%),[3]; [5],100%
same,No. of survivors,[3]; [6],14
same,survivors (%),[3]; [6],100%
same,No. of survivors,[3]; [7],11
same,survivors (%),[3]; [7],79%
same,No. of survivors,[3]; [8],6
same,survivors (%),[3]; [8],43%
same,No. of survivors,[3]; [9],6
same,survivors (%),[3]; [9],43%
same,No. of survivors,[3]; [10],14
same,efficacy compared to the control group,"[3]; Study 1, survival",significant efficacy
same,blood bacterial counts,"[4]; Study 2, 24 h",0 CFU/mL Blood
same,lung bacterial counts,[4]; [11],3.75E+04 CFU/g Lung
same,blood bacterial counts,"[4]; Study 2, 48 h",0 CFU/mL Blood
same,kidney bacterial counts,"[4]; Study 2, 48 h",0 CFU/g Kidneys
same,liver bacterial counts,"[4]; Study 2, 48 h",0 CFU/g Liver
same,lung bacterial counts,"[4]; Study 2, 48 h",5.56E+06 CFU/g Lung
same,blood bacterial counts,"[4]; Study 2, 72 h",0 CFU/mL Blood
same,kidney bacterial counts,"[4]; Study 2, 72 h",0 CFU/g Kidneys
same,liver bacterial counts,"[4]; Study 2, 72 h",0 CFU/g Liver
same,spleen bacterial counts,"[4]; Study 2, 72 h",0 CFU/g Spleen
same,lung bacterial counts,"[4]; Study 2, 72 h, surviving mice only",1.00E+00 CFU/g Lung
